Read-outs that look alike come from different tables or passages of the source.

One assay addresses T1, CSNK2A1 (Homo sapiens, UniProt P68400).
T1 construct: full-length PKN3, CSNK2A1 or CSNK2A2 ORF; host or cells: HEK293T
Put plainly: NanoBRET in-cell target engagement in HEK293T cells: CSNK2A1. The format is cell-based. How it is done:
The NanoBRET assay was performed as described previously[28],[58]. In brief, full-length PKN3, CSNK2A1 or CSNK2A2 ORF (PKN3 vector was a kind gift of Promega, Vectors for […]: NV2981, NV1191) cloned in frame with a C-terminal NanoLuc-fusion, respectively, were transfected into HEK293T cells using FuGENE HD (Promega, E2312) and proteins were allowed to express for 20 h. Serially diluted inhibitor and NanoBRET Kinase Tracer K5 (Promega, N2530) at 500 nM (PKN3) or NanoBRET Kinase Tracer K10 (Promega, N2840) at 500 nM ([…]) were pipetted into 384-well plates using an Echo acoustic dispenser (Labcyte). The PKN3, CSNK2A1 or CSNK2A2 transfected cells were added at a density of 2 × 10^5 cells per ml after trypsinization and resuspending in Opti-MEM without phenol red (Life Technologies). The system was allowed to equilibrate for 2 h at 37 °C and 5% CO2 before BRET measurements. BRET signaling was measured by adding NanoBRET NanoGlo Substrate and Extracellular NanoLuc Inhibitor (Promega) according to the manufacturer’s protocol. Filtered luminescence was measured on a PHERAstar plate reader (BMG Labtech) equipped with a luminescence filter pair (450 nm BP filter (donor) and 610 LP filter (acceptor)). Competitive displacement data were then graphed using GraphPad Prism software (v.5.01) using a three-parameter curve fit with the following equation Y=bottom+(top−bottom)/1+10^logIC50−X×hillslope
Experiments were performed with at least two biological and two technical replicates.

The target of another assay is T2, PIK3CG (Homo sapiens, UniProt P48736).
T2 construct: endogenous in cells
T2 sequence (P48736 whole entry): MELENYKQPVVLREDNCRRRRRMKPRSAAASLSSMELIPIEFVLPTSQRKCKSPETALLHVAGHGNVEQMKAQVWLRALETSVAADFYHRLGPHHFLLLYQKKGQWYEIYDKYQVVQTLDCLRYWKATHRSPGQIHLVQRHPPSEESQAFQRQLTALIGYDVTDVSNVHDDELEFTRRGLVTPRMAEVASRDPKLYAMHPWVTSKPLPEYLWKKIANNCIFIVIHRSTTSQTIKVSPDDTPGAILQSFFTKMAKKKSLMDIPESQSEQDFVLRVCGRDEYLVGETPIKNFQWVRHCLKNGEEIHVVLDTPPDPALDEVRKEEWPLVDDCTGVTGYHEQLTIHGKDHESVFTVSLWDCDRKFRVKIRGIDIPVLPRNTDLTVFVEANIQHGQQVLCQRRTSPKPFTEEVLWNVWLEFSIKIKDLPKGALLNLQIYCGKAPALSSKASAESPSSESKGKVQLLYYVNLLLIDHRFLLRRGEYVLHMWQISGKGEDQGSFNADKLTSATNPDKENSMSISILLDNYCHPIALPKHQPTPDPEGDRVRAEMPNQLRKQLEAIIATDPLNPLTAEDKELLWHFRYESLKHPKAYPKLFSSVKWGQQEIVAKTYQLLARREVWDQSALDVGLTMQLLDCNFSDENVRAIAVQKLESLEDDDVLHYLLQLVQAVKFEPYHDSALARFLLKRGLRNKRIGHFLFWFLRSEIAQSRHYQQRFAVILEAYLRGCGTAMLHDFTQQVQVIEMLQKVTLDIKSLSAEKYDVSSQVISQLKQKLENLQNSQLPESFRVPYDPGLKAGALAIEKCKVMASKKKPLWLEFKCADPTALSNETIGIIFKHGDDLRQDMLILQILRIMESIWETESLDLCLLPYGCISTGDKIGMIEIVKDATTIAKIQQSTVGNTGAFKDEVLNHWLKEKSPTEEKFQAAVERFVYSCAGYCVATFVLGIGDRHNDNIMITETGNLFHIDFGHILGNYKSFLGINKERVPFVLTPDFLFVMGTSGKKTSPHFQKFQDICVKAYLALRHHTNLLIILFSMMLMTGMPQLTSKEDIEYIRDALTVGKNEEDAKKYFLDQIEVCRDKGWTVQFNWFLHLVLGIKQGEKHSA
Nature of the assay: Kinobeads two-dose competition binding: PIK3CG. Conditions: sheet "Kinobeads Drugmatrix-nanomolar2" (compounds in rows); read-out: Kinobeads Drugmatrix-nanomolar2: apparent Kd, PIK3CG. An excerpt: Supplement 41589_2023_1459_MOESM3_ESM.xlsx, sheet "Kinobeads Drugmatrix-nanomolar2" | column: PIK3CG

For a further assay, the target named is T3, BMPR1B (Homo sapiens, UniProt O00238).
T3 construct: endogenous in cells
T3 sequence (O00238 14-502): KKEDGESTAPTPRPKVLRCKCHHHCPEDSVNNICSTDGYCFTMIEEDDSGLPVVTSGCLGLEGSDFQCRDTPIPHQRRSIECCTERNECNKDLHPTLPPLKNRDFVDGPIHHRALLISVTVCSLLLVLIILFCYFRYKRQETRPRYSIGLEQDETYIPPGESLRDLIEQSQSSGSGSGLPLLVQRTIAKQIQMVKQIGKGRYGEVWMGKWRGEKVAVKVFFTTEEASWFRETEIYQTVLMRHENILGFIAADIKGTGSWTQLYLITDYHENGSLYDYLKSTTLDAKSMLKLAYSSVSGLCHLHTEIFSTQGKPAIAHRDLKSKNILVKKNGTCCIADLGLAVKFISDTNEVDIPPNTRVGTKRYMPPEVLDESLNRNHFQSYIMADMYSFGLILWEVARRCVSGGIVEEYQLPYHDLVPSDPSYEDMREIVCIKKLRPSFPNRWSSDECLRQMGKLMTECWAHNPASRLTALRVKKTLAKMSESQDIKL
Nature of the assay: Kinobeads two-dose competition binding: BMPR1B. Conditions: read-out: Lestaurtinib Drugmatrix value, Gene Name BMPR1B.

Another assay has as its target T4, EPHB1 (Homo sapiens, UniProt P54762).
T4 construct: endogenous in cells
T4 sequence (P54762 18-984): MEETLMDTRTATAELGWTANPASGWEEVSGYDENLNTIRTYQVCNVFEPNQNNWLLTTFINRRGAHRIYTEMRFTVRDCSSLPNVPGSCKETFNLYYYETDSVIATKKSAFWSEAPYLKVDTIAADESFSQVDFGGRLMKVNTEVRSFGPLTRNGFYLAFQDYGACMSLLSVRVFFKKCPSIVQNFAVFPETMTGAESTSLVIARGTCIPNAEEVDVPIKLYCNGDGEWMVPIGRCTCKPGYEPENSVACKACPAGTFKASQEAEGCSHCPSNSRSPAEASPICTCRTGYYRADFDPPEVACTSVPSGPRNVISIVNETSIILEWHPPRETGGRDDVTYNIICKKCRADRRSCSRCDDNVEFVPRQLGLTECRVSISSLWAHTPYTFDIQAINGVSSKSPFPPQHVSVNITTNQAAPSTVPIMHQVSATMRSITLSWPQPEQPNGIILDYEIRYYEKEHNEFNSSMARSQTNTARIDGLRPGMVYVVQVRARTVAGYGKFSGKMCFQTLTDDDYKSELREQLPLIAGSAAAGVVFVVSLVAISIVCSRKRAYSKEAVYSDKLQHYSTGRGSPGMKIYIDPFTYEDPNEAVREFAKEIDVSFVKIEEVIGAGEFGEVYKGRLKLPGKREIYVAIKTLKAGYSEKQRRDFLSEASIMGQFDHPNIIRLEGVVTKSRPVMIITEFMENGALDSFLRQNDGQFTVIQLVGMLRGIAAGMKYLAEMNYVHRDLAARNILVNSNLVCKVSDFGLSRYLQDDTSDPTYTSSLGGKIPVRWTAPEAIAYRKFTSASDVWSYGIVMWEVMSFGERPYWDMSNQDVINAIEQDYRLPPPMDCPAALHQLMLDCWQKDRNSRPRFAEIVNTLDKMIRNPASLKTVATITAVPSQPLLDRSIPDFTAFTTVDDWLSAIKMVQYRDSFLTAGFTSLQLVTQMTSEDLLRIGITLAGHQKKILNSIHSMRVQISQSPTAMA
Nature of the assay: Kinobeads two-dose competition binding: EPHB1. The conditions noted are these: read-out: Lestaurtinib Drugmatrix value, Gene Name EPHB1; target EPHB1; each column = one Lestaurtinib control replicate (batch_R1-R3).

Another assay has as its target T5, HCK (Homo sapiens, UniProt P08631).
T5 construct: endogenous in cells
Nature of the assay: Kinobeads two-dose competition binding: HCK. The conditions noted are these: read-out: Lestaurtinib Drugmatrix value, Gene Name HCK; target HCK; each column = one Lestaurtinib control replicate (batch_R1-R3).

For another assay, the target named is T6, PHKG2 (Homo sapiens, UniProt P15735).
T6 construct: a mixture of lysates from five cancer cell lines; endogenous in cells
T6 sequence (P15735 1-406): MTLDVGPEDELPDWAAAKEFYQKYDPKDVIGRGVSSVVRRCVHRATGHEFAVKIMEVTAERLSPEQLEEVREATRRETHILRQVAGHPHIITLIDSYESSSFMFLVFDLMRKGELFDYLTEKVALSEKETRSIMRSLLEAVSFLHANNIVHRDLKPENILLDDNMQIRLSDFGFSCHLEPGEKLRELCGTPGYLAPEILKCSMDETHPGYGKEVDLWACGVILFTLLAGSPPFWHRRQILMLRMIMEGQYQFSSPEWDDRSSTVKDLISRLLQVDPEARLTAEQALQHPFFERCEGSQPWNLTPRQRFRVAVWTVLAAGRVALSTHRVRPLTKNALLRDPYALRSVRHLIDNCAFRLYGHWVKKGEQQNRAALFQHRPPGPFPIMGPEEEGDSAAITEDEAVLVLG
Nature of the assay: Kinobeads competition binding, Lestaurtinib control replicates: PHKG2. Conditions: read-out: Lestaurtinib Drugmatrix value; Gene Name PHKG2; one column per experiment number and replicate (R1-R3).

Another assay concerns the target T7, ULK3 (Homo sapiens, UniProt Q6PHR2).
T7 construct: endogenous in cells
Nature of the assay: Kinobeads two-dose competition binding: ULK3.

T1 sequence (P68400 whole entry): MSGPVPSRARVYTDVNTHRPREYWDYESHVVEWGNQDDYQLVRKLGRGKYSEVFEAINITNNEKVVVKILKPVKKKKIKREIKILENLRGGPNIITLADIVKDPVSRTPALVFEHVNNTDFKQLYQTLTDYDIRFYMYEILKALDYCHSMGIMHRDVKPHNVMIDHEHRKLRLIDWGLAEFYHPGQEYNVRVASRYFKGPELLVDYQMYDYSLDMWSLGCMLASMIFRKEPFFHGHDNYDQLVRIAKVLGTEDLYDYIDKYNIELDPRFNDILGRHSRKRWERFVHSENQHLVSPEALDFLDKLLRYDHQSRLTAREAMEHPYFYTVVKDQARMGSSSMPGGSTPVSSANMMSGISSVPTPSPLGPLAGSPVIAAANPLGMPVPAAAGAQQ
T7 sequence (Q6PHR2 whole entry): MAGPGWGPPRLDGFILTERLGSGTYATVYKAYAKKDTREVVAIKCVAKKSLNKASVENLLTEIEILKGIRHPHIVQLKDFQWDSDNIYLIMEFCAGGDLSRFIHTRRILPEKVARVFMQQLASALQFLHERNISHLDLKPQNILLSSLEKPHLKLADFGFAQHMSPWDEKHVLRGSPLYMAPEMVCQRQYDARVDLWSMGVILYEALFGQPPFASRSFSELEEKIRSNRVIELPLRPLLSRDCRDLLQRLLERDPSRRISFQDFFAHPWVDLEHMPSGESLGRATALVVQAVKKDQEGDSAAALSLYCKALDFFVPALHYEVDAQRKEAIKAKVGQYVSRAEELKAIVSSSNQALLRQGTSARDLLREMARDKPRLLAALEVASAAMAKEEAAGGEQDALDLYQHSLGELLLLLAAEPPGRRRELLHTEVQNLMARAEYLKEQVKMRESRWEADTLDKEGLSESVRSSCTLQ
T5 sequence (P08631 whole entry): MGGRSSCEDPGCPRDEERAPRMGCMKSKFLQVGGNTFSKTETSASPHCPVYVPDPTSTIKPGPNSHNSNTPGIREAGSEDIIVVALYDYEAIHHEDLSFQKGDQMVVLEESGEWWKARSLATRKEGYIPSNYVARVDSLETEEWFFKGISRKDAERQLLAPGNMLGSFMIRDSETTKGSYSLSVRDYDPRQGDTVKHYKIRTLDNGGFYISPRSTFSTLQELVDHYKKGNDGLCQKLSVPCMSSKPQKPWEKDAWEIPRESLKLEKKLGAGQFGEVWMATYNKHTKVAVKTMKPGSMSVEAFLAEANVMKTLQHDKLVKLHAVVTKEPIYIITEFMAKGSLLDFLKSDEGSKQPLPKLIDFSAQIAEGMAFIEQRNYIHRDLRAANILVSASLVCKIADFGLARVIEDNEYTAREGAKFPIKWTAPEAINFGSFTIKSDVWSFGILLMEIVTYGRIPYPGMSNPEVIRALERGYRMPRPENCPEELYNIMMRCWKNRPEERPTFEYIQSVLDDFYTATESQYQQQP

On to `COc1cc(Nc2ncc3c(C)nc(-c4cc5ccccc5[nH]4)n3n2)cc(OC)c1OC` [GW869516X], for which the IC50 on CSNK2A1 (CSNK2A1, replicate 1, read-out: NanoBRET Rep1) came out at 471 nM; on CSNK2A1 (CSNK2A1, replicate 2, read-out: NanoBRET Rep2), 421 nM; on CSNK2A1 (HEK293T cells, in-cell target engagement, read-out: IC50 CSNK2A1 NanoBRET) it was 446 nM.

Consider `CC(C)N1CC(=O)N(C)c2cnc(Nc3cccc(S(=O)(=O)CCN4CCOCC4)c3)nc21` [BI00009348], for which the potency estimated from few doses on PIK3CG was 109 nM.

Regarding `C[C@]12O[C@H](C[C@]1(O)CO)n1c3ccccc3c3c4c(c5c6ccccc6n2c5c31)CNC4=O` [Lestaurtinib], the potency estimated from few doses at BMPR1B was 737 nM; on EPHB1 it was 403 nM; at HCK it was 587 nM; on PHKG2 it was 321 nM; on ULK3 (read-out: Lestaurtinib Drugmatrix value, Gene Name ULK3, repeated control pulldowns; each column = experiment id and replicate (Lestaurtinib_02339_R1 ... Lestaurtinib_03260_R3)), 113 nM; on ULK3 (read-out: Lestaurtinib Drugmatrix value, Gene Name ULK3; repeated control pulldowns; each column = experiment id and replicate (Lestaurtinib_02339_R1 ... Lestaurtinib_03260_R3)) it was 218 nM.

(Values after publication PMC11062922 (Nature Chemical Biology, 2023).)
